Laboratory results taken from article PMC9916969 (International Journal of Molecular Sciences, 2023).
Read-outs that look alike come from different tables or passages of the source.

How the values were obtained:
[1] = ABTS radical cation scavenging assay; design: key to ABTS^•+ Scavenging Activity, TEAC: TEAC: ratio of compound slope to Trolox slope (Trolox equivalents); settings: 1 h incubation
Protocol: In the ABTS assay, the dark-green ABTS cation-radical (ABTS^•+) is quenched by interaction with AOs. The consequent decrease in absorbance is followed spectrophotometrically per the previously described method.
Radical scavenging activity of the compounds was assessed using the ABTS radical cation (ABTS^•+) decolorization assay with some modifications. ABTS (2,2′-azinobis-(3-ethylbenzothiazoline-6-sulfonic acid) was purchased from Tokyo Chemical Industry Co., Ltd. (Tokyo, Japan); potassium persulfate (dipotassium peroxodisulfate), Trolox (6-hydroxy-2,5,7,8-tetramethylchroman-2-carboxylic acid), and HPLC-grade ethanol and DMSO were obtained from Sigma-Aldrich (Saint Louis, MO, USA). Aqueous solutions were prepared using deionized water. All tested compounds were dissolved in DMSO.
The solution of cation radical ABTS^•+ was produced by incubation of an aqueous solution of 7 mM ABTS and 2.45 mM potassium persulfate solution in equal quantities for 12–16 h at room temperature in the dark. Radical scavenging capacity of the compounds was analyzed by mixing 10 μL of compound with 240 μL of ABTS^•+ working solution in ethanol (100 μM final concentration). The reaction was monitored for an hour at 30 °C with an interval of 10 min. Data are given for 1 h of incubation of compounds with ABTS^•+. The reduction in absorbance was measured spectrophotometrically at 734 nm using an xMark microplate UV/VIS spectrophotometer (Bio-Rad, Hercules, CA, USA). Ethanol blanks were run in each assay. Values were obtained from five replicates of each sample and three independent experiments.
The standard AO Trolox was used as a reference compound. AO capacity as Trolox equivalent (TEAC) values was determined as the ratio between the slopes obtained from the linear correlation of the ABTS radical absorbance with the concentrations of tested compounds and Trolox. Ascorbic acid was used as a positive control. […]. The compounds were tested in the concentration range of 0.5–100 µM.

[2] = molecular target: T1, AChE (Homo sapiens, UniProt P22303); test: Kinetic study of AChE inhibition (Lineweaver-Burk); assay type: biochemical; settings: for αKi (non-competitive inhibition constant), AChE: mixed-type inhibition, mean ± SEM; for Ki: read-out: Ki (competitive inhibition constant), AChE
T1 construct: human erythrocyte AChE, equine serum BChE, and porcine liver CES were used; purchased Sigma-Aldrich; host or cells: human erythrocytes (tissue-derived)
Protocol: (§1) We assessed the mechanisms of AChE and BChE inhibition by performing a thorough analysis of enzyme kinetics. After a 5 min incubation at 25 °C (for temperature equilibration) with three increasing concentrations of inhibitor and six decreasing substrate concentrations, the residual enzyme activity was measured as described above for enzymatic assays.

[3] = molecular target: T2, equine serum BChE (Equus caballus, UniProt P81908); test: biochemical; settings: mean ± SEM, n = 3, read-out: Inhibitory activity against BChE, IC50
T2 construct: human erythrocyte AChE, equine serum BChE, and porcine liver CES were used; purchased Sigma-Aldrich; host or cells: equine serum (tissue-derived)
Source text: (§2) Assessment of the esterase profile of new potential anti-AD molecules enables the estimation of both the primary pharmacological effects of the tested compounds—their inhibition of AChE and BChE—and their possible unwanted side effect—inhibition of CES, which hydrolyzes numerous ester-containing drugs. For the esterase profile evaluation, human erythrocyte AChE, equine serum BChE, and porcine liver CES were used. These sources of BChE and CES were employed because of their relatively low cost, high sequence identity to human enzymes, and the exploratory character of this work.
(§3) Chromophore absorbances were measured with a FLUOStar Optima microplate reader (BMG Labtech, Ortenberg, Germany). […] Initially, we used a single concentration of 20 µM for all compounds.

[4] = test system: porcine liver CES; test: In vitro CES inhibition (4-NPA substrate); assay type: biochemical; settings: compound 20 µM, n.a. = not active
Source text: as §2, §3

[5] = molecular target: T3, eqBChE (Equus caballus, UniProt P81908); test: Kinetic study of BChE inhibition (Lineweaver-Burk); assay type: biochemical; settings: for Ki: read-out: Ki (competitive inhibition constant), eqBChE
T3 construct: human erythrocyte AChE, equine serum BChE, and porcine liver CES were used; purchased Sigma-Aldrich; host or cells: equine serum (tissue-derived)
Protocol: Similar results were obtained for other tested compounds (Figures S61 and S62). The obtained values of inhibition constants (Ki = competitive component and αKi = non-competitive component) are shown in Table 2.
as §1

[6] = molecular target: β-amyloid (1–42) (Aβ42) (Homo sapiens, UniProt P05067); test: Inhibition of Aβ42 self-aggregation (thioflavin T); assay type: biochemical; settings: read-out: Inhibition of Aβ42 Self-Aggregation
Protocol: The inhibitory activity of tested hybrids against the self-aggregation of Aβ42 was determined in vitro using the thioflavin T (ThT) fluorimetric assay. According to [84], the ThT test is ideal for preliminary screening of inhibitors of Aβ42 self-aggregation, as it enables the quantitative testing of large numbers of compounds within a relatively short time.
The influence of the inhibitory effect of the test compounds toward Aβ42 self-aggregation was determined using the thioflavin T (ThT) fluorescence method with minor modifications. This assay is based on a specific interaction between the fluorescent dye thioflavin T that binds to the β-sheets of assembled amyloid fibrils leading to a significant increase in fluorescence signal. Therefore, the decrease in ThT fluorescence correlates with the ability of the studied compounds to inhibit the formation of amyloid aggregates.
One mg of lyophilized HFIP-pretreated Aβ42 from BACHEM (Bubendorf, Switzerland) was dissolved in DMSO to obtain a stable initial solution ([Aβ42] = 500 μM); then it was aliquoted and stored at −20 °C.
For the measurement of Aβ42 self-aggregation and amyloid fibril inhibition studies by the tested compounds, aliquots of 500 μM Aβ42 stock solution were diluted in 215 mM Na-phosphate buffer pH = 8.0 to a final concentration of 50 μM Aβ42. Then the samples were incubated for 24 h at 37 °C without stirring in the absence (base level of Aβ42 self-aggregation, control) or presence of the test compounds. Myricetin and propidium iodide were used as reference compounds (positive controls). All compounds were used in a concentration of 100 µM. To quantify Aβ42 fibril formation, after incubation, 5 μM ThT in 50 mM glycine-NaOH buffer pH 8.5 was added to the solutions to a final concentration of 4 μM ThT and the fluorescence was measured at 440 nm (excitation) and 485 nm (emission). Analyses were performed with a FLUOStar Optima microplate reader (LabTech, Ortenberg, Germany). The blanks consisted of 215 mM Na-phosphate buffer, pH = 8.0, 20% (v/v) DMSO or test compounds, respectively. Each assay was run in triplicate.

[7] = molecular target: T4, EeAChE PAS (Electrophorus electricus, UniProt O42275); assay type: binding; settings: compound 20 µM; EeAChE 7 µM; propidium iodide 8 µM
T4 construct: The enzyme was electric eel AChE (EeAChE type VI-S, lyophilized powder, Sigma-Aldrich); purchased Sigma-Aldrich type VI-S; host or cells: electric eel (tissue-derived)
Source text: This method is widely used as a screening approach to assess the potential ability of compounds to block AChE-induced β-amyloid aggregation. This is because when the compounds bind to the AChE PAS, they prevent the binding of β-amyloid, thereby inhibiting its aggregation.
The enzyme was electric eel AChE (EeAChE type VI-S, lyophilized powder, Sigma-Aldrich). We selected this source of AChE for consistency with our other reports and because of the purity, specific activity, and lower cost compared to human AChE.
Propidium iodide (final concentration 8 μM) was then added for a further 15 min incubation, and the fluorescence spectrum was taken (530 nm excitation and 600 nm emission) using a FLUOStar Optima microplate reader. The same concentration of propidium iodide in the Tris buffer was used as the blank. Triplicate determinations were recorded and the results were calculated via the following equation:% Displacement = 100 − (IFAChE+ Propidium + inhibitor/IFAChE + Propidium) × 100, where IFAChE + Propidium = fluorescence intensity of propidium iodide associated with AChE in the absence of the test compound (taken as 100%), and IFAChE + Propidium + inhibitor = fluorescence intensity of propidium iodide associated with AChE in the presence of the test compound.

[8] = in vitro; assay type: cell-based; settings: mouse
Protocol: […]. Accordingly, in the present work, we paid special attention to the study of the cytotoxic activity of compounds on primary cultures of mouse hepatocytes using standard MTT methodology.
The cytotoxicity of the compounds was evaluated using a primary culture of mouse hepatocytes isolated at the Center for Biotechnology and Bioengineering, Ural Federal University, Ekaterinburg, Russia, according to the standard method. Cells were seeded in 96-well plates in the inoculum dose of 1 × 10^4 cells/mL and cultured for 24 h in Dulbecco’s Modified Eagle Medium (DMEM), with 1% (w/v) glutamine in the presence of 10% (v/v) fetal bovine serum and gentamicin (50 mg/L) at 37 °C, with a humidified atmosphere of 5% (v/v) CO2. Cell viability was assessed using the standard MTT assay. The compounds were dissolved in DMSO and then in a nutrient medium, after which they were added to the wells with cells at final concentrations of 10^−7, 10^−6, 10^−5, and 10^−4 M. Hepatocytes were exposed to test compounds for 24 h at 37 °C, 95% relative humidity and 5% (v/v) CO2 atmosphere. After incubation, the medium was replaced with 100 μL of fresh medium containing MTT (0.5 mg/mL). The plates were then incubated at 37°C in a CO2 incubator for 2 h. Then the medium with MTT was removed and DMSO was added to dissolve the formazan crystals.
The results of the MTT assay were evaluated on a Tecan Infinite M200 PRO (Tecan Austria GmbH, Grödig, Austria) plate spectrophotometer at 570 nm by comparing the optical density of a formazan solution in the assay and control wells. The cell viability was expressed as the percentage of untreated control. The results were obtained from three independent experiments performed in six replicates. The IC50 (μM) values were calculated by the AAT Bioquest-calculator: (https://www.aatbio.com/tools/ic50-calculator, accessed on 1 December 2022) and expressed as a mean ± standard error of the mean (SEM). Statistical analysis was carried out using Microsoft Excel 2007 (Microsoft Corporation, Redmond, WA, USA) and Statistica 2009 (Tulsa, OK, USA) programs.

[9] = molecular target: T5, human erythrocyte AChE (Homo sapiens, UniProt P22303); test: biochemical; settings: mean ± SEM, n = 3, read-out: Inhibitory activity against AChE, IC50
T5 construct: human erythrocyte AChE, equine serum BChE, and porcine liver CES were used; purchased Sigma-Aldrich; host or cells: human erythrocytes (tissue-derived)
Source text: as §2, §3

[10] = FRAP assay; settings: Trolox equivalents; 60 min, 37 °C; n.a. = not active
Protocol: The Ferric Reducing Antioxidant Power (FRAP) test involves reduction of the ferric 2,4,6-tripyridyl-s-triazine complex [Fe(TPTZ)2]^3+ to an intense-blue ferrous complex [Fe(TPTZ)2]^2+ [92], as previously reported. Results are given as Trolox Equivalents (TE).
The FRAP (ferric reducing antioxidant power) assay proposed by Benzie and Strain [92] was modified to be performed in 96-well microplates as described in detail in [53]. The FRAP reagent contained 2.5 mL of 10 mM TPTZ (2,4,6-tris(2-pyridyl)-s-triazine, Sigma-Aldrich) solution in 40 mM HCl, 2.5 mL of 20 mM FeCl3 (Sigma-Aldrich) in distilled water and 25 mL of 0.3 M acetate buffer (pH 3.6). Aliquots of 10 µL of the test compound dissolved in DMSO (0.5 mM) were placed in quadruplicate. Absorbance was measured at a wavelength of 593 nm after 60 min incubation at 37 °C. In each case, Trolox was used as a reference compound to obtain the standard curve. The AO activity was calculated with respect to the activity of Trolox and expressed as Trolox equivalents (TE)—the values calculated as the ratio of the concentrations of Trolox and the test compound resulting in the same effect on ferric reducing activity.

[11] = mixed-type inhibition, mean ± SEM
[12] = Aβ42 50 µM, compound 100 µM, 24 h, 37 °C, thioflavin T

Sequence of β-amyloid (1–42) (Aβ42) (P05067 672-713 limits assumed): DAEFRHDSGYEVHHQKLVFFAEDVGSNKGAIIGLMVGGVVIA
T1 sequence (P22303 32-617 isoform P22303-2 limits assumed): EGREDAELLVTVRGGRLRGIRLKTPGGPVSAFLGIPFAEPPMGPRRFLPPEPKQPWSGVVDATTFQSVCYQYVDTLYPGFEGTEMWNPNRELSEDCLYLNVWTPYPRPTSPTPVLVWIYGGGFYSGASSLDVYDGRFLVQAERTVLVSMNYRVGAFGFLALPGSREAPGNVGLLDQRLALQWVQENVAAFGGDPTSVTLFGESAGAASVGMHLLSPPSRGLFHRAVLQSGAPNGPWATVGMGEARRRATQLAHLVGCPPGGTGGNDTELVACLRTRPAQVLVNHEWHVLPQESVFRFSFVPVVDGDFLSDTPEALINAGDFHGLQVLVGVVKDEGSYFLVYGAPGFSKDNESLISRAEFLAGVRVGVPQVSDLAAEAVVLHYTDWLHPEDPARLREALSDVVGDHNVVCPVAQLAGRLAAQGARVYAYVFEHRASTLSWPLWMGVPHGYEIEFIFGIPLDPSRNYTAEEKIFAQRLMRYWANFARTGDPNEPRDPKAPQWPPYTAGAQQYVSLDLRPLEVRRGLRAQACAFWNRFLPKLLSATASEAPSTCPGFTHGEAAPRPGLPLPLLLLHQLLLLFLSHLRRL
T5 sequence (P22303 32-617 isoform P22303-2 limits assumed): as above
T4 sequence (O42275 24-633): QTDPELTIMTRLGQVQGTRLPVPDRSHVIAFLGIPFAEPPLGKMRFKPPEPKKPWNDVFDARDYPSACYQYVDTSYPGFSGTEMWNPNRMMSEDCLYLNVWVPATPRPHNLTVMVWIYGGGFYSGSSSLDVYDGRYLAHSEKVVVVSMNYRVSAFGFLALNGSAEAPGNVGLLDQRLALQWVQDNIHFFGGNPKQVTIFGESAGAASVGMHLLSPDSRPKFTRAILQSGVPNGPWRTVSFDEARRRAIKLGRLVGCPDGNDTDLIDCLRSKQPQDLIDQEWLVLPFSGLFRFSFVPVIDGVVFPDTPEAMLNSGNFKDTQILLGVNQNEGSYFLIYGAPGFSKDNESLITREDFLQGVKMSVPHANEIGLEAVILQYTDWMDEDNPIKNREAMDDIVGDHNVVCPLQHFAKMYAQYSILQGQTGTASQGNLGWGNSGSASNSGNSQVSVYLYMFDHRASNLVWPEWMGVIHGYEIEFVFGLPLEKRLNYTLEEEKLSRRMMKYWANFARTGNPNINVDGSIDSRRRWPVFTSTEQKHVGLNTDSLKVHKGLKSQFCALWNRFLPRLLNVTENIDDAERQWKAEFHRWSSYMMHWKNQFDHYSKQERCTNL
T2 sequence (P81908 whole entry): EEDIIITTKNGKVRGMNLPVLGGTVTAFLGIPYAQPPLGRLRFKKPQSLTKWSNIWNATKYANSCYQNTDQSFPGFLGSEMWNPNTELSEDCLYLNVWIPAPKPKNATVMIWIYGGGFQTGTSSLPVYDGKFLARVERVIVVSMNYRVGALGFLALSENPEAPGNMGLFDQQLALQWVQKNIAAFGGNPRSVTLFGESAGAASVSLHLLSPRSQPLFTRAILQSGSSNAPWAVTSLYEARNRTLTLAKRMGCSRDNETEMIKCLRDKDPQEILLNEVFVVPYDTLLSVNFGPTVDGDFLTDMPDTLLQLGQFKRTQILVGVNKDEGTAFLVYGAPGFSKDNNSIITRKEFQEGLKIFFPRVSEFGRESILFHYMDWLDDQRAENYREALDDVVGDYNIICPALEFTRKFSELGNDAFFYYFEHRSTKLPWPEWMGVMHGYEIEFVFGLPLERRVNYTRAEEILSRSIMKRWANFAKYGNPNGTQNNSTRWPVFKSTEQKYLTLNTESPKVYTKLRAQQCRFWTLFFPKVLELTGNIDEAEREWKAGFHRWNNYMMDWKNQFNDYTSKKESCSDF
T3 sequence (P81908 whole entry): as above

Structure (SMILES)	IC50 ([1]; 50% reduction of ABTS radical cation)	ABTS^•+ Scavenging Activity, TEAC ([1]; Trolox equivalent, n.a. = not active)	αKi (non-competitive inhibition constant), AChE [2]	IC50 [3]	Inhibitory activity against CES, inhibition at 20 µM [4]	αKi (non-competitive inhibition constant), eqBChE [5, 11]	Ki [5, 11]	inhibition at 100 µM [6, 12]	Propidium Displacement from EeAChE PAS [7]	IC50 at 24 h [8]	Ki [2]	IC50 [9]	Ki [5]	FRAP, TE [10]	inhibition at 100 µM [6]
O=C(NCCCCCCCCNc1c2c(nc3ccccc13)CCCC2)c1ccccc1O [5c]	25.5 ± 1.1 µM	0.75 ± 0.04	0.263 ± 0.018 µM	0.0104 ± 0.0013 µM	29.5 ± 2.5%	0.0171 ± 0.0013 µM	0.0106 ± 0.0007 µM	71.9 ± 5.7%	14.2 ± 1.1%						
COc1ccccc1C(=O)NCCCCCCCCNc1c2c(nc3ccccc13)CCCC2 [6c]			0.213 ± 0.012 µM	0.0475 ± 0.0032 µM	10.6 ± 1.2%	0.0314 ± 0.0025 µM		55.6 ± 4.4%	14.1 ± 0.9%	3.81 ± 0.07 µM	0.104 ± 0.004 µM	0.15 ± 0.011 µM	0.0188 ± 0.0011 µM		
COc1cc(F)c(F)cc1C(=O)NCCCCCCNc1c2c(nc3ccccc13)CCCC2 [8b]				0.0702 ± 0.0042 µM	6.3 ± 0.9%			29.7 ± 2.3%	13.8 ± 0.9%	3.95 ± 0.22 µM		0.712 ± 0.067 µM		0.02	
COc1cc(F)c(F)cc1C(=O)NCCCCCCCCNc1c2c(nc3ccccc13)CCCC2 [8c]			0.0998 ± 0.0058 µM	0.0317 ± 0.0024 µM	19.8 ± 3.1%	0.0187 ± 0.0013 µM		54.1 ± 4.3%	15.1 ± 1.2%		0.0536 ± 0.0025 µM	0.142 ± 0.011 µM	0.0177 ± 0.0007 µM	0.02	
Nc1c2c(nc3ccccc13)CCCC2 [Tacrine, reference compound]										3.78 ± 0.15 µM					5.9 ± 0.5%
